# Where “and” joins values, the source holds several entries; their conditions need not be identical. Equal entries are not always repeated.
# Key:
# Pgp3 WT = Pgp3 WT (Campylobacter jejuni, UniProt Q0P921); experiment: Isothermal-titration calorimetry (ITC) with Pgp3 WT; assay type: binding, C. jejuni
# Description: The gene encoding the amino-acid sequence of Glu21–Gln273 of Pgp3 from C. jejuni (strain ATCC 33560) was cloned into the expression vector pET-21a (Novagen) producing the recombinant wild-type Pgp3 protein with the C-terminal His6-tag ([…]). The protein expression and purification were conducted according to previously described methods with exception. The HiTrap chelating HP (GE Healthcare) column was washed with the lysis buffer containing 60 mM imidazole and the protein was eluted with a linear gradient from 100 to 500 mM imidazole. The protein was further purified by gel filtration on a HiLoad 16/60 Superdex 200 prep-grade column (GE Healthcare), which was previously equilibrated with 20 mM Tris-HCl pH 8.0 and 200 mM NaCl. The fractions containing the Pgp3 protein were pooled and concentrated to 15 mg mL^−1 for crystallization. The variants of Pgp3 (S169A, R195A, H216A, and H247A) were generated by site-directed mutagenesis using primer sets in Supplementary Table 1 and were purified as described for the WT Pgp3.
# Using a micro-syringe, 2.5 μL of each inhibitor (2.25 mM) was added at intervals of 200 s to the Pgp3 solution in the cell with gentle stirring (125 rpm). The same ITC condition was applied to evaluate the KD values of BMK-S101 for each Pgp3 variant. All data were fitted to the single-binding-site model. Fitted curves were generated using GraphPad Prism 7. Data are mean ± SEM from triplicate experiments and the ITC thermograms are representative of triplicate experiments.
# C. jejuni (ATCC 33560) = experiment: Drug accumulation assay (LC-MS)
# Description: The accumulation assay was adapted from two different methods[42],[43]. […] The culture was grown overnight at 42 °C under the micro-aerobic condition. The cells were harvested at 6000 g for 15 min and washed with 1 × PBS, followed by resuspension in pre-warmed 1 × PBS to ~10^10 CFU/mL. The cell suspension (1.2 mL) was dispensed into a 24-well plate. Each compound to be examined was added into each well (final concentration = 100 μM). […] After incubation with shaking at 37 °C for 20 min, OD600 of each sample was measured, and the cells were harvested at 6000 g for 10 min at 4 °C. The pellets were resuspended in 250 μL of water, followed by three cycles of Freeze-Thaw with a dry ice/ethanol bath and a 37 °C-heating block in order to extract the compounds from C. jejuni. The cells were pelleted at 13,000 g for 5 min at room temperature. The supernatants (220 μL) were transferred to new tubes. The pellets were resuspended in 100 μL of methanol with vigorous vortexing for 1 min, followed by pelleting as before. The supernatants (100 μL) were combined with the solutions previously collected. The residual cell debris were removed at 20,000 g for 15 min at room temperature. The supernatants (300 μL) were dried with Genevac™ miVac Centrifugal Concentrator at room temperature for 5 h. Finally, the samples were resuspended with appropriate solvents and analyzed by LC-MS.
# The suspension was centrifuged and the supernatant was analyzed by LC-MS. LC-MS systems consists of a Bruker impact II ultra-high resolution Qq-time-of-flight mass spectrometer using Hystar 5.0 SR1 software with a Waters Acquity UPLC H-Class system equipped with a quaternary solvent manager, a sample manager-FTN, and a photodiode array detector. The Bruker electrospray ionization source was operated in the positive ion mode, except for BMK-S301 (in the negative ion mode). […] A four-step 10-min LC gradient was as follows: 3 min at 98:2; 3 min to 85:15; 0.1 min to 98:2; 3.9 min at 98:2 for BMK-S101, -S203, and -S301. The ratio of the mobile phases (A = 0.1% formic acid in water, B = 0.1% formic acid in ACN) is given as A:B in LC gradients. […] The quantification was done by integrating the peak areas from extracted-ion chromatograms of corresponding m/z values of each compound.
# Sequence of Pgp3 WT (Q0P921 entry or part of it): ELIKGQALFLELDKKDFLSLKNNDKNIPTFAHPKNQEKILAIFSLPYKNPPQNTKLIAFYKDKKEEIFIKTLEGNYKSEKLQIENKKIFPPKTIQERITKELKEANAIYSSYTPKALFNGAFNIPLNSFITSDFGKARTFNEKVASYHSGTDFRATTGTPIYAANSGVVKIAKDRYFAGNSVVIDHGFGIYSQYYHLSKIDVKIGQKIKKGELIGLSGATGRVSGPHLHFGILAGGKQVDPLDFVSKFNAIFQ
structure (smiles),measurement,setting,value
CC(=O)N[C@@H](Cc1ccc(S(N)(=O)=O)cc1)C(=O)N[C@H](C)C(=O)NO [BMK-S301],Kd,Pgp3 WT,3.5 ± 0.2 µM
same,accumulation fold higher than for BMK-S203,C. jejuni (ATCC 33560); 100 μM compound,54 fold
same,accumulation fold higher than for ciprofloxacin,C. jejuni (ATCC 33560); 100 μM compound,8 fold
same,intracellular concentration (accumulation),"C. jejuni (ATCC 33560); 100 μM compound, 37 °C, 20 min, LC-MS, mean",16.2 ± 1.0 nmole/10^11 CFU
same,µM (concentration in LC-MS sample),"C. jejuni (ATCC 33560); single replicates (First, Second, Third), total volume 200 (r6-r19) or 100 (r23-r30), source data Fig. 5b",0.766 µM and 0.686 µM and 1.447 µM and 1.359 µM and 1.398 µM and 0.649 µM
same,nmol/1011 CFUs,"C. jejuni (ATCC 33560); single replicates, source data Fig. 5b",17.92 nmol/1011 CFUs and 16.41 nmol/1011 CFUs and 16.422 nmol/1011 CFUs and 15.620 nmol/1011 CFUs and 15.458 nmol/1011 CFUs and 15.07 nmol/1011 CFUs
same,Total nmol,"C. jejuni (ATCC 33560); single replicates, total volume 200 or 100, source data Fig. 5b",0.1532 nmol and 0.1372 nmol and 0.1447 nmol and 0.1359 nmol and 0.1398 nmol and 0.1298 nmol

# Source: publication PMC9050674, “Structure-based inhibitor design for reshaping bacterial morphology” (Communications Biology, 2022)
